Where “and” joins values, the source holds several entries; their conditions need not be identical. Identical values can stand only once.
System: 616215-338-R-J1-PDC complex spheroid growth, % test/control
Assay: Anticancer human tumor 616215-338-R-J1-PDC patient-derived colon adenocarcinoma cell line growth inhibition [Asc]
Settings: for viability, T/C: stronger effect = lower value
Description: Multicellular complex tumor spheroid response to apoptosis pathway targeting inhibitors Alrizomadlin, Pelcitoclax, and Dasminapant in combination with a variety of drugs and investigational agents in selected tumor cell lines
The MDM2 inhibitor alrizomadlin, the Bcl-2/Bcl-xL inhibitor pelcitoclax, and the IAPs inhibitor dasminapant were evaluated both individually and in combination with standard of care and investigational anticancer small molecules within a complex spheroid model of solid tumors. . Complex spheroids include a stromal component modeled by human endothelial cells (HUVEC) and fibroblasts modeled by human mesenchymal stem cells (MSCs). The concentration ranges selected for each drug and investigational agent were based upon clinically achievable concentrations if the clinical Cmax of the agent was known.
Compounds. The drugs and investigational agents: alrizomadlin (APG-115; NSC831270), pelcitoclax (APG-1252; NSC835773), dasminapant (APG-1387;NSC834197), TAK-243 (NSC785004), copanlisib (NSC809693), olaparib (NSC753686), talazoparib (NSC767125), cobimetinib (NSC 768068), eltanexor (KPT-8602, NSC 794443), abemaciclib (NSC 768073), sotorasib (NSC818433), adagrasib (NSC 831453), MRTX-1133 (NSC 836407), Iadademestat (ORY1001, NSC 806812), and RMC-4630 (NSC839698), were obtained from the NCI Developmental Therapeutics Program Chemical Repository. The FDA-approved anticancer drug set is available from the Developmental Therapeutics Program at https://dtp.cancer.gov/organization/dscb/obtaining/available plates.htm. […] The stock solutions were prepared in dimethyl sulfoxide (DMSO, Sigma-Aldrich, St. Louis, MO, cat. D2650) at 800-fold the tested concentration and stored at -70 degrees C prior to their use. All drugs and investigational agents were tested over a range starting from a high concentration at or near the clinical Cmax and decreasing in half-log increments. If the clinical Cmax for an agent had not been determined, the highest concentration tested was 10 microM.
The patient-derived cancer (PDC) cell lines include five colon adenocarcinomas: 186277-243-T-J2-PDC, 616215-338-R-J1-PDC, 439559-082-T-J2-PDC, 463943-066-T-J2-PDC, and 519858-162-T-J1-PDC; three pancreatic carcinomas: 323965-272-R-J2-PDC, 521955-158-R6-J3-PDC, and 521955-158-R2-J5-PDC; two uterine sarcomas: 327498-152-R-J2-PDC and 993429-296-R-J1-PDC; two rhabdomyosarcomas: 755483-174-R-J1-PDC and 772245-204-R-J1-PDC; two soft tissue sarcomas: 126254-015-R-J1-PDC and 494315-158-R-J1-PDC; two malignant fibrous histiocytomas: 317291-083-R-J1-PDC and 596521-263-R-J1-PDC; two breast carcinomas: 171881-019-R-J1-PDC and 885512-296-R-J2-PDC; and one ovarian carcinoma: 6556581-035-R-J-PDC were obtained from the NCI PDMR, (https://pdmr.cancer.gov). The established cell lines HSSY-2 synovial sarcoma (RRID:CVCL 8719), SYO-1 synovial sarcoma (RRID:CVCL_7146), MPNST malignant peripheral neural sheath tumor were obtained from the Sloan Kettering Institute. The following established cell lines were purchased from the American Type Culture Collection (ATCC, Manassas, VA), Sor the received from the NCI repository:, PANC-1 pancreatic carcinoma (CRL-1469, RRID:CVCL_0480), OVCAR-5 ovarian carcinoma (RRID:CVCL_1628), OVCAR-8 ovarian carcinoma (RRID:CVCL_1629), , MCF-7 breast carcinoma (CRL-12584, RRID:CVCL_0031), MDA-MB-231 breast carcinoma (CRL-12532, RRID:CVCL_0062), NCI-H1876 small cell lung carcinoma (CRL-5902, RRID:CVCL_1503), NCI-H510A small cell lung carcinoma (HTB-184, RRID:CVCL_1565), NCI-H1417 (CRL-5869, RRID:CVCL_1469), and NCI-H196 small cell lung carcinoma (CRL-5823, RRID:CVCL_1509). Dr. Peter Houghton (Greehey Children's Cancer Research Institute, University of Texas Health Science Center, San Antonio, TX) provided Rh-18 rhabdomyosarcoma (RRID:CVCL_1659). Pooled donor human umbilical vein endothelial cells (HUVEC, Lonza, cat. CC-2519) and human mesenchymal stem cells (hMSC, Lonza, cat. PT-2501) were purchased from Lonza (Walkersville, MD).
Cell Culture. […]

[1] = curve of first compound, second compound 0.03 µM
[2] = curve of first compound, second compound 0.0949 µM
[3] = curve of first compound, second compound 0.3 µM
[4] = curve of first compound, second compound 0.949 µM
[5] = curve of first compound, second compound 3 µM
[6] = second compound 0.03 µM, first compound 0.00316 µM
[7] = second compound 0.03 µM, first compound 0.01 µM
[8] = second compound 0.03 µM, first compound 0.0316 µM
[9] = second compound 0.03 µM, first compound 0.1 µM
[10] = second compound 0.03 µM, first compound 0.316 µM
[11] = second compound 0.03 µM, first compound 1 µM
[12] = second compound 0.0949 µM, first compound 0.00316 µM
[13] = second compound 0.0949 µM, first compound 0.01 µM
[14] = second compound 0.0949 µM, first compound 0.0316 µM
[15] = second compound 0.0949 µM, first compound 0.1 µM
[16] = second compound 0.0949 µM, first compound 0.316 µM
[17] = second compound 0.0949 µM, first compound 1 µM
[18] = second compound 0.3 µM, first compound 0.00316 µM
[19] = second compound 0.3 µM, first compound 0.01 µM
[20] = second compound 0.3 µM, first compound 0.0316 µM
[21] = second compound 0.3 µM, first compound 0.1 µM
[22] = second compound 0.3 µM, first compound 0.316 µM
[23] = second compound 0.3 µM, first compound 1 µM
[24] = second compound 0.949 µM, first compound 0.00316 µM
[25] = second compound 0.949 µM, first compound 0.01 µM
[26] = second compound 0.949 µM, first compound 0.0316 µM
[27] = second compound 0.949 µM, first compound 0.1 µM
[28] = second compound 0.949 µM, first compound 0.316 µM
[29] = second compound 0.949 µM, first compound 1 µM
[30] = second compound 3 µM, first compound 0.00316 µM
[31] = second compound 3 µM, first compound 0.01 µM
[32] = second compound 3 µM, first compound 0.0316 µM
[33] = second compound 3 µM, first compound 0.1 µM
[34] = second compound 3 µM, first compound 0.316 µM
[35] = second compound 3 µM, first compound 1 µM
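Further: spheroids exposed to agents for seven days before readout.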
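Wherever viability, T/C is given: 100% = DMSO vehicle control viability.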

| IC50 [1] [nM] | IC50 [2] [nM] | IC50 [3] [nM] | IC50 [4] [nM] | IC50 [5] [nM] | SMILES | viability, T/C [6] [%] | viability, T/C [7] [%] | viability, T/C [8] [%] | viability, T/C [9] [%] | viability, T/C [10] [%] | viability, T/C [11] [%] | viability, T/C [12] [%] | viability, T/C [13] [%] | viability, T/C [14] [%] | viability, T/C [15] [%] | viability, T/C [16] [%] | viability, T/C [17] [%] | viability, T/C [18] [%] | viability, T/C [19] [%] | viability, T/C [20] [%] | other results |
| --- | --- | --- | --- | --- | --- | --- | --- | --- | --- | --- | --- | --- | --- | --- | --- | --- | --- | --- | --- | --- | --- |
| – | – | – | – | – | Cn1ncnc1[C@H]1c2n[nH]c(=O)c3cc(F)cc(c23)N[C@@H]1c1ccc(F)cc1 | – | – | – | – | – | – | – | – | – | – | – | – | – | – | – | viability, T/C (compound 0.000316 µM): 93.4% and 104% and 99.2%; viability, T/C (compound 0.001 µM): 96.2% and 100% and 92.5%; viability, T/C (compound 0.00316 µM): 97.1% and 98.9% and 93.8%; viability, T/C (compound 0.01 µM): 99% and 106% and 100%; viability, T/C (compound 0.0316 µM): 95.7% and 100% and 102%; viability, T/C (compound 0.1 µM): 108% (2×) and 100%; IC50 (curve of compound): > 100 nM |
| 70 | 52.9 | 16.4 | 5.81 | < 3.16 | O=C(c1ccc(F)c(F)c1Nc1ccc(I)cc1F)N1CC(O)([C@@H]2CCCCN2)C1 + CCN1C(C(=O)NC23CCC(C(=O)O)(CC2)CC3)C(c2cccc(Cl)c2F)C2(C(=O)Nc3cc(Cl)ccc32)C12CCCCC2 | 89.9 | 88.6 | 90.1 | 32.3 | 0.26 | 0.38 | 93.8 | 93.6 | 74.5 | 19.6 | 0.23 | 0.37 | 59.8 | 57.7 | 38.8 | viability, T/C [21]: 3%; viability, T/C [22]: 1.18%; viability, T/C [23]: 1.93%; viability, T/C [24]: 55.5%; viability, T/C [25]: 44.2%; viability, T/C [26]: 23.3%; viability, T/C [27]: 2.29%; viability, T/C [28]: 1.21%; viability, T/C [29]: 3.73%; viability, T/C [30]: 40.3%; viability, T/C [31]: 36%; viability, T/C [32]: 3.79%; viability, T/C [33]: 0.28%; viability, T/C [34]: 0.56%; viability, T/C [35]: 2.69% |
| > 1000 | > 1000 | > 1000 | > 1000 | < 3.16 | CNC(C)C(=O)NC1CN(S(=O)(=O)c2cccc(S(=O)(=O)N3CCC4CCC(C(=O)NC(c5ccccc5)c5ccccc5)N4C(=O)C(NC(=O)C(C)NC)C3)c2)CCC2CCC(C(=O)NC(c3ccccc3)c3ccccc3)N2C1=O (configuration not stated) + CCN1C(C(=O)NC23CCC(C(=O)O)(CC2)CC3)C(c2cccc(Cl)c2F)C2(C(=O)Nc3cc(Cl)ccc32)C12CCCCC2 | 95.2 | 96.1 | 87.4 | 97.2 | 91 | 87 | 90.9 | 91.4 | 95.7 | 86.6 | 76 | 81.3 | 74.1 | 58.8 | 62.3 | viability, T/C [21]: 58.9%; viability, T/C [22]: 66.5%; viability, T/C [23]: 61.2%; viability, T/C [24]: 71.5%; viability, T/C [25]: 75.5%; viability, T/C [26]: 67.4%; viability, T/C [27]: 63.5%; viability, T/C [28]: 72.8%; viability, T/C [29]: 78.5%; viability, T/C [30]: 41.1%; viability, T/C [31]: 49.4%; viability, T/C [32]: 51.6%; viability, T/C [33]: 48.7%; viability, T/C [34]: 47.2%; viability, T/C [35]: 52.8% |
| > 1000 | > 1000 | > 1000 | > 1000 | 150 | CCN1CCN(Cc2ccc(Nc3ncc(F)c(-c4cc(F)c5nc(C)n(C(C)C)c5c4)n3)nc2)CC1 + CCN1C(C(=O)NC23CCC(C(=O)O)(CC2)CC3)C(c2cccc(Cl)c2F)C2(C(=O)Nc3cc(Cl)ccc32)C12CCCCC2 | 102 | 99.2 | 104 | 108 | 108 | 116 | 93.6 | 96 | 97.2 | 80.5 | 88.2 | 75.2 | 66.2 | 67 | 63.3 | viability, T/C [21]: 58.3%; viability, T/C [22]: 69.5%; viability, T/C [23]: 59.9%; viability, T/C [24]: 60.5%; viability, T/C [25]: 66.6%; viability, T/C [26]: 72.1%; viability, T/C [27]: 68.9%; viability, T/C [28]: 83.6%; viability, T/C [29]: 52%; viability, T/C [30]: 48.2%; viability, T/C [31]: 52.4%; viability, T/C [32]: 48.3%; viability, T/C [33]: 56.4%; viability, T/C [34]: 54.7%; viability, T/C [35]: 42.2% |

— PubChem BioAssay AID1963448 (Molecular Pharmacology Branch, DTP, NCI, 2024)
